Reference: patent publication US20080051429A1, “USE OF 4-AMINO-PIPERIDINES FOR TREATING SLEEP DISORDERS” (priority 2006, published 2008)

Tests used:
[1] = test system: healthy volunteers; assay: Continuous Performance Test (CPT); type: in vivo, human
Experimental: Performance Assessment: A Continuous Performance Test (CPT; Rosvold M E, Mirsky A F, Sarason I, Bransome E R Jr., Beck L H (1956) A continuous performance test for brain damage. J Consult Psychol 20:343-350, which is incorporated herein by reference in its entirety), was used to evaluate attention and vigilance. The test was administered both during the evening and the morning following the baseline PSG on Day 1 and the evaluation PSG on Day 13. Participants were rapidly presented a numerical train with a target number as point of reference. Participants pushed a button rapidly when the target number appeared in the number list. The procedure lasted three minutes. The number of targets detected and the number of false alarms were assessed.

[2] = Plasma levels (LC/MS/MS); type: in vivo, human; details: after 13 days; for plasma concentration, Mean: n = 9
Experimental: Plasma Levels: Blood samples were collected into Vacutainer® (dry sodium heparin, green top tube, 6 mL capacity) on Day −1 and again on Day 14 (pre-dose). The time interval between blood collection and freezing of the plasma was no longer than 45 minutes. Within 45 minutes of collection, the plasma fractions were separated by centrifugation at 3,000 rotations per minutes for 10 minutes. The plasma fractions were divided and transferred into two properly labeled storage tubes and frozen at approximately −70° C. Plasma samples were evaluated for N-(1-methylpiperidin-4-yl)-N-(4-fluorophenylmethyl)-N′-(4-(2-methylpropyloxy)phenylmethyl)carbamide using a validated high performance liquid chromatography/tandem mass spectrometric (LC/MS/MS) assay.

CC(C)COc1ccc(CNC(=O)N(Cc2ccc(F)cc2)C2CCN(C)CC2)cc1 [N-(1-methylpiperidin-4-yl)-N-(4-fluorophenylmethyl)-N′-(4-(2-methylpropyloxy)phenylmethyl)carbamide]
CPT detected targets and false alarm change scores ([1]; any dose, evening and morning (p>0.10)): absence of effect | daytime functioning ([1]; in words): did not impair | plasma concentration, Maximum ([2]; 1 mg once daily): 2.33 ng/mL | plasma concentration, Median ([2]; 1 mg once daily): 1.750 ng/mL | plasma concentration, Minimum ([2]; 1 mg once daily): 0.92 ng/mL | plasma concentration, Mean ([2]; 1 mg once daily): 1.628 ng/mL | plasma concentration, Maximum ([2]; 2.5 mg once daily): 5.55 ng/mL | plasma concentration, Median ([2]; 2.5 mg once daily): 3.360 ng/mL | plasma concentration, Minimum ([2]; 2.5 mg once daily): 2.07 ng/mL | plasma concentration, Mean ([2]; 2.5 mg once daily): 3.647 ng/mL | plasma concentration, Maximum ([2]; 5 mg once daily): 13.00 ng/mL | plasma concentration, Median ([2]; 5 mg once daily): 8.720 ng/mL | plasma concentration, Minimum ([2]; 5 mg once daily): 5.91 ng/mL | plasma concentration, Mean ([2]; 5 mg once daily): 8.516 ng/mL | plasma concentration, Maximum ([2]; 20 mg once daily): 52.70 ng/mL | plasma concentration, Median ([2]; 20 mg once daily): 34.100 ng/mL | plasma concentration, Minimum ([2]; 20 mg once daily): 21.90 ng/mL | plasma concentration, Mean ([2]; 20 mg once daily): 35.033 ng/mL
